Laboratory results: ChEMBL document CHEMBL6120986, “In silico inspired design of urea noscapine congeners as anticancer agents: Chemical synthesis and experimental evaluation using breast cancer cells and a xenograft mouse model” (Eur J Med Chem, 2025)
Values belong to the compound of their own block, whether it stands above or below them. Calls of active or inactive are those of the source. No cut-off for these calls is given here.

What was measured:
[1] = system: MDA-MB-231; assay: Antiproliferative activity against human MDA-MB-231 cells assessed as inhibition of cell proliferation incubated for 72 hrs by SRB assay; assay type: functional, cell-based; settings: MDA-MB-231, 72 h
[2] = Cytotoxicty against HEK cells incubated for 72 hrs by SRB assay; assay type: toxicity, cell-based; settings: human
[3] = system: MCF7; assay: Antiproliferative activity against human MCF7 cells assessed as inhibition of cell proliferation incubated for 72 hrs by SRB assay; assay type: functional, cell-based; settings: MCF7, 72 h
[4] = Toxicity in female BALB/c athymic mouse assessed as hemoglobin concentration at 150 mg/kg/day, po (reference value: 16.59 +/- 0.60 g/dl); assay type: organism-based; settings: in vivo
[5] = system: MDA-MB-231; assay: Inhibition of colony formation in human MDA-MB-231 cells incubated for 24 hrs by crystal violet staining based colony formation assay; assay type: functional, cell-based; settings: dose 1-20 µM
[6] = system: MDA-MB-231; assay: Induction of apoptosis in human MDA-MB-231 cells assessed as formation of apoptotic bodies at 6.65 uM (IC50) measured after 72 hrs by fluorescence microscopic analysis; assay type: functional, cell-based
[7] = system: Mitochondrial membrane; assay: Induction of mitochondrial membrane potential loss in human MDA-MB-231 cells assessed as increase in green fluorescence incubated for 48 hrs by rhodamine-123 staining based fluorescence microscopic analysis; assay type: cell membranes
[8] = system: MDA-MB-231; assay: Induction of apoptosis in human MDA-MB-231 cells assessed as membrane blebbing at 6.65 uM (IC50) measured after 72 hrs by fluorescence microscopic analysis; assay type: functional, cell-based
[9] = Toxicity in female BALB/c athymic mouse assessed as glucose level at 150 mg/kg/day, po (reference value: 98.47 +/- 3.29 mg/dl); assay type: organism-based; settings: in vivo
[10] = Toxicity in female BALB/c athymic mouse assessed as creatinine level at 150 mg/kg/day, po (reference value: 0.690 +/- 0.05 mg/dl); assay type: organism-based; settings: in vivo
[11] = Toxicity in female BALB/c athymic mouse assessed as mean corpuscular volume at 150 mg/kg/day, po (reference value: 53.06 +/- 0.06 fL); assay type: organism-based; settings: in vivo
[12] = Binding affinity in goat brain tubulin assessed as equilibrium dissociation constant incubated for 45 mins by fluorescence titration method; design: species or system Capra hircus
[13] = Toxicity in female BALB/c athymic mouse assessed as ALK PHOS level at 150 mg/kg/day, po (reference value: 78.59 +/- 5.85 U/L); assay type: organism-based; settings: in vivo
[14] = Toxicity in female BALB/c athymic mouse assessed as ALT level at 150 mg/kg/day, po (reference value: 29.79 +/- 3.15 U/L); assay type: organism-based; settings: in vivo
[15] = system: MDA-MB-231; assay: Induction of apoptosis in human MDA-MB-231 cells assessed as increase in TUNEL positive nuclei at 6.56 uM by TUNEL assay relative to control; assay type: functional, cell-based
[16] = Toxicity in female BALB/c athymic mouse assessed as AST level at 150 mg/kg/day, po (reference value: 105.92 +/- 6.41 U/L); assay type: organism-based; settings: in vivo
[17] = Toxicity in female BALB/c athymic mouse assessed as WBC count at 150 mg/kg/day, po (reference value: 4.50 +/- 2.20 10^3/uL); assay type: organism-based; settings: in vivo
[18] = Toxicity in BALB/c athymic mouse xenografted with human MCF-7 cells assessed as change in body weight at 150 mg/kg, po administrated daily for 30 days; assay type: organism-based; settings: in vivo, 720 h, time 30 day
[19] = Toxicity in female BALB/c athymic mouse assessed as mean corpuscular hemoglobin concentration at 150 mg/kg/day, po (reference value: 35.86 +/- 0.24 g/dl); assay type: organism-based; settings: in vivo
[20] = species: Capra hircus; assay: Binding affinity to goat brain tubulin assessed as tryptophan fluorescence change incubated for 45 mins by tryptophan quenching assay; settings: dose 50-200 µM
[21] = Toxicity in BALB/c athymic mouse assessed as effect on proximal tubules morphology at 150 mg/kg, po by Hematoxylin and eosin staining based analysis; assay type: organism-based; settings: in vivo
[22] = Toxicity in BALB/c athymic mouse assessed as effect on blood arteries morphology at 150 mg/kg, po by Hematoxylin and eosin staining based analysis; assay type: organism-based; settings: in vivo
[23] = Toxicity in female BALB/c athymic mouse assessed as Chlorine level at 150 mg/kg/day, po (reference value: 105.63 +/- 4.46 mEq/L); assay type: organism-based; settings: in vivo
[24] = Toxicity in BALB/c athymic mouse assessed as effect on cerebral cortex morphology at 150 mg/kg mg/kg, po by Hematoxylin and eosin staining based analysis; assay type: organism-based; settings: in vivo
[25] = system: MDA-MB-231; assay: Induction of apoptosis in human MDA-MB-231 cells assessed as late apoptotic cells at 6.56 uM incubated for 72 hrs by Annexin/FITC based FACS analysis (reference value: 3%); assay type: functional
[26] = Toxicity in female BALB/c athymic mouse assessed as calcium level at 150 mg/kg/day, po (reference value: 8.73 +/- 0.10 mg/dl); assay type: organism-based; settings: in vivo
[27] = Toxicity in female BALB/c athymic mouse assessed as platelet at 150 mg/kg/day, po (reference value: 95.11 +/- 7.23 10^3/uL); assay type: organism-based; settings: in vivo
[28] = Toxicity in female BALB/c athymic mouse assessed as sodium level at 150 mg/kg/day, po (reference value: 144.51 +/- 0.85 mEq/L); assay type: organism-based; settings: in vivo
[29] = Toxicity in BALB/c athymic mouse assessed as effect on glomeruli morphology at 150 mg/kg, po by Hematoxylin and eosin staining based analysis; assay type: organism-based; settings: in vivo
[30] = system: Mitochondrial membrane; assay: Induction of mitochondrial membrane potential loss in human MDA-MB-231 cells assessed as increase in blue fluorescence incubated for 48 hrs by […] staining based fluorescence microscopic analysis; assay type: cell membranes
[31] = system: MDA-MB-231; assay: Induction of cell cycle arrest in human MDA-MB-231 cells assessed as accumulation of hypodiploid cells at sub-G1 phase at 6.65 uM IC50 incubated for 72 hrs by FACS analysis; assay type: functional, cell-based
[32] = Toxicity in female BALB/c athymic mouse assessed as total protein level at 150 mg/kg/day, po (reference value: 6.88 +/- 0.15 g/dl); assay type: organism-based; settings: in vivo
[33] = Toxicity in female BALB/c athymic mouse assessed as albumin level at 150 mg/kg/day, po (reference value: 6.31 +/- 0.41 g/dl); assay type: organism-based; settings: in vivo
[34] = system: MDA-MB-231; assay: Induction of intracellular ROS generation in human MDA-MB-231 cells assessed as increase in fluorescence intensity at 6.56 uM incubated for 48 hrs by H2DCFDA fluorescence assay; assay type: functional, cell-based
[35] = system: MDA-MB-231; assay: Induction of apoptosis in human MDA-MB-231 cells assessed as early apoptotic cells at 6.56 uM incubated for 72 hrs by Annexin/FITC based FACS analysis (reference value: 2%); assay type: functional
[36] = Toxicity in female BALB/c athymic mouse assessed as bilirubin direct level at 150 mg/kg/day, po (reference value: 0.298 +/- 0.07 mg/dl); assay type: organism-based; settings: in vivo
[37] = Toxicity in female BALB/c athymic mouse assessed as RBC count at 150 mg/kg/day, po (reference value: 5.84 +/- 0.30 10^6/uL); assay type: organism-based; settings: in vivo
[38] = system: MDA-MB-231; assay: Induction of cell cycle arrest in human MDA-MB-231 cells assessed as increase in accumulation of cells at G2/M phase at 6.65 uM incubated for 72 hrs by PI staining based FACS analysis relative to control; assay type: functional
[39] = system: Mitochondrial membrane; assay: Induction of mitochondrial membrane potential loss in human MDA-MB-231 cells assessed as decrease in red fluorescence incubated for 48 hrs by JC-1 staining based fluorescence microscopic analysis; assay type: cell membranes
[40] = Toxicity in female BALB/c athymic mouse assessed as mean corpuscular hemoglobin measured per cell at 150 mg/kg/day, po (reference value: 28.62 +/- 0.08 pg/cell); assay type: organism-based; settings: in vivo
[41] = Toxicity in female BALB/c athymic mouse assessed as potassium level at 150 mg/kg/day, po (reference value: 3.30 +/- 0.83 mEq/L); assay type: organism-based; settings: in vivo
[42] = Toxicity in BALB/c athymic mouse assessed as effect on alveoli morphology at 150 mg/kg mg/kg, po by Hematoxylin and eosin staining based analysis; assay type: organism-based; settings: in vivo
[43] = Toxicity in female BALB/c athymic mouse assessed as effect on bronchial morphology at 150 mg/kg, po by Hematoxylin and eosin staining based analysis; assay type: organism-based; settings: in vivo
[44] = Toxicity in female BALB/c athymic mouse assessed as monocyte count at 150 mg/kg/day, po (reference value: 0.39 +/- 0.03 %); assay type: organism-based; settings: in vivo
[45] = system: MCF7; assay: Antitumor activity against human MCF7 cells xenografted in BALB/c athymic mouse assessed as reduction in tumor volume at 150 mg/kg, po administrated for 30 days (reference value: 1.63 cm^3); assay type: functional; settings: time 30 day
[46] = Toxicity in female BALB/c athymic mouse assessed as eosinophil count at 150 mg/kg/day, po (reference value: 0.84 +/- 0.04 %); assay type: organism-based; settings: in vivo
[47] = Toxicity in female BALB/c athymic mouse assessed as bilirubin total level at 150 mg/kg/day, po (reference value: 0.673 +/- 0.01 mg/dl); assay type: organism-based; settings: in vivo
[48] = Toxicity in BALB/c athymic mouse assessed as effect on distal tubules morphology at 150 mg/kg, po by Hematoxylin and eosin staining based analysis; assay type: organism-based; settings: in vivo
[49] = Toxicity in female BALB/c athymic mouse assessed as hematocrit at 150 mg/kg/day, po (reference value: 41.34 +/- 0.30 %); assay type: organism-based; settings: in vivo
[50] = system: MDA-MB-231; assay: Induction of apoptosis in human MDA-MB-231 cells assessed as increase in fragmented nuclei at 6.65 uM (IC50) measured after 72 hrs by fluorescence microscopic analysis; assay type: functional, cell-based
[51] = Toxicity in BALB/c athymic mouse assessed as effect on hepatic lobules morphology at 150 mg/kg, po by Hematoxylin and eosin staining based analysis; assay type: organism-based; settings: in vivo
[52] = Toxicity in female BALB/c athymic mouse assessed as BUN level at 150 mg/kg/day, po (reference value: 10.19 +/- 2.68 mg/dl); assay type: organism-based; settings: in vivo
[53] = Toxicity in female BALB/c athymic mouse assessed as bilirubin indirect level at 150 mg/kg/day, po (reference value: 3.05 +/- 0.32 mg/dl); assay type: organism-based; settings: in vivo
[54] = Toxicity in BALB/c athymic mouse assessed as effect on interstitium morphology at 150 mg/kg, po by Hematoxylin and eosin staining based analysis; assay type: organism-based; settings: in vivo

IC50 [1]: 35.7 µM
IC50 [3]: 27.7 µM
SMILES: COc1ccc2c(c1OC)C(=O)O[C@@H]2[C@H]1c2c(c(NC(=O)Nc3c(Cl)cc(Cl)cc3Cl)c3c(c2OC)OCO3)CCN1C
IC50 at 72 h [2]: 293 µM

IC50 [1]: 48.1 µM
IC50 [3]: 36.1 µM
SMILES: COc1cc(NC(=O)Nc2c3c(c(OC)c4c2OCO4)[C@H]([C@H]2OC(=O)c4c2ccc(OC)c4OC)N(C)CC3)cc(OC)c1OC
IC50 at 72 h [2]: 294 µM

IC50 [1]: 48.5 µM
IC50 [3]: 37.9 µM
SMILES: COc1ccc2c(c1OC)C(=O)O[C@@H]2[C@H]1c2c(c(NC(=O)Nc3cccc(F)c3)c3c(c2OC)OCO3)CCN1C
IC50 at 72 h [2]: 292 µM

Activity [7]: Active
IC50 [1]: 6.56 µM
Kd [12]: 42 µM
Activity [20]: Dose-dependent-effect
Activity [30]: Active
IC50 [3]: 4.77 µM
Activity [39]: Active
SMILES: COc1ccc2c(c1OC)C(=O)O[C@@H]2[C@H]1c2c(c(NC(=O)Nc3ccc(Cl)cc3Cl)c3c(c2OC)OCO3)CCN1C
Activity [4]: 14.6 g/dL
inhibition [5]: Dose-dependent-effect
Activity [6]: Active
Activity [8]: Active
Activity [9]: 98.37 mg/dL
Activity [10]: 0.702 mg/dL
Activity [11]: 58.1 fL
Activity [13]: 78.45 U/L
Activity [14]: 28.62 U/L
Activity [15]: Active
Activity [16]: 106.86 U/L
Activity [17]: 4.59 10^3 /uL
Activity [18]: Non-toxic
Activity [19]: 34.74 g/dL
Activity [21]: Non-toxic
Activity [22]: Non-toxic
Activity [23]: 106.71 mEq/L
Activity [24]: Non-toxic
Activity [25]: 68%
Activity [26]: 7.9 mg/dL
Activity [27]: 89.07 10^3 /uL
Activity [28]: 144.4 mEq/L
Activity [29]: Non-toxic
Activity [31]: Active
IC50 at 72 h [2]: 338 µM
Activity [32]: 6.56 g/dL
Activity [33]: 6.19 g/dL
Activity [34]: Active
Activity [35]: 22%
Activity [36]: 0.32 mg/dL
Activity [37]: 6.29 10^6 /uL
Activity [38]: Active
Activity [40]: 29.7 pg
Activity [41]: 3.3 mEq/L
Activity [42]: Non-toxic
Activity [43]: Non-toxic
Activity [44]: 0.48%
Activity [45]: 0.34 cm3
Activity [46]: 0.9%
Activity [47]: 0.56 mg/dL
Activity [48]: Non-toxic
Activity [49]: 39.29%
Activity [50]: Active
Activity [51]: Non-toxic
Activity [52]: 12.11 mg/dL
Activity [53]: 3.08 mg/dL
Activity [54]: Non-toxic

IC50 [1]: 45.7 µM
IC50 [3]: 38.2 µM
SMILES: CCc1ccc(NC(=O)Nc2c3c(c(OC)c4c2OCO4)[C@H]([C@H]2OC(=O)c4c2ccc(OC)c4OC)N(C)CC3)cc1
IC50 at 72 h [2]: 290 µM
